# Data taken from PubChem BioAssay AID1053191 (Broad Institute, 2014).
# Results filed as inconclusive are left out. Active and inactive are the calls of the source.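 Rule for the calls: active = compounds whose fitted half-maximal potency for killing cells lies within twice their highest tested dose; inconclusive = flat curve with 30 to 70% signal loss, or poor fit; inactive = the rest.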
# Test system: HEK293T viability, ATP luminescence, 72 h
# Test: HEK293 cell viability loss – dry powder samples, cytotoxicity control, dose response (AID 1053191)
# Conditions: not given
row,SMILES,AC50 [µM]
1,O=C(c1c(F)cccc1F)N(Cc1ccccc1)Cc1ccccc1,50

# Test system: not listed separately
# Test: as above
# Conditions: HEK293T viability, ATP luminescence, 72 h; at 50 µM (top of the series)
row,SMILES,"activity change, negative = cytotoxic"
1,OCc1ccc(-c2nn(Cc3ccccc3)c3ccccc23)o1,4.83% (inactive)
2,Cc1cc2ccccc2n1CCNC(=O)COc1ccc2ccccc2c1,-12.6% (inactive)
3,CCc1cccc2c1NC1(CCCC1)CC2C (centres undefined),-4.91% (inactive)
4,COc1ccc(Nc2ccccc2N)cc1,-11.7% (inactive)
5,Cc1cccc(NC(=O)NCc2ccc3c(c2)cc(C)n3C)c1,-22.6% (inactive)
6,CNc1ccccc1C(C)(C)c1cc(-c2cccc(OC)c2)no1,-41.9% (inactive)
7,COc1cc(CC2C(=O)Nc3ccccc32)cc(C)c1O (centres undefined),-16.6% (inactive)
8,CCc1ccc(-n2c(=S)sc3c(=O)n(-c4ccccc4C)c(SCC(=O)O)nc32)cc1,12.6% (inactive)
9,Cc1ccc(CSc2nc3[nH]ncc3c(=O)[nH]2)cc1,-29.4% (inactive)
10,Cc1cc2cc(CNC(=O)Nc3ccc(Cl)c(Cl)c3)ccc2n1C,-15.7% (inactive)
11,Cc1ccc(S(=O)(=O)NCc2ccc3c(c2)cc(C)n3C)cc1,-7.83% (inactive)
12,O=C(O)C1CCN(c2nc(-c3ccccc3)c3cc(Br)ccc3n2)CC1,13.4% (inactive)
13,Cc1cc(C)c(S(=O)(=O)NCCn2c(C)cc3ccccc32)c(C)c1,-16.1% (inactive)
